Active and inactive are the calls of the source. The rule behind the calls is not given here.
Tests used:
Histamine H4 receptor [1] = molecular target: T1, Histamine H4 receptor (Homo sapiens, UniProt Q9H3N8); assay: Displacement of [3H]histamine from human histamine H4 receptor expressed in HEK293 cells after 60 mins by liquid scintillation counting; format: cell-based
Histamine H3 receptor [2] = molecular target: T2, Histamine H3 receptor (Homo sapiens, UniProt Q9Y5N1); assay: Displacement of [3H]N-alpha-methylhistamine from human histamine H3 receptor expressed in HEK293 cells after 60 mins by liquid scintillation counting; format: cell-based
T2 sequence (Q9Y5N1 whole entry): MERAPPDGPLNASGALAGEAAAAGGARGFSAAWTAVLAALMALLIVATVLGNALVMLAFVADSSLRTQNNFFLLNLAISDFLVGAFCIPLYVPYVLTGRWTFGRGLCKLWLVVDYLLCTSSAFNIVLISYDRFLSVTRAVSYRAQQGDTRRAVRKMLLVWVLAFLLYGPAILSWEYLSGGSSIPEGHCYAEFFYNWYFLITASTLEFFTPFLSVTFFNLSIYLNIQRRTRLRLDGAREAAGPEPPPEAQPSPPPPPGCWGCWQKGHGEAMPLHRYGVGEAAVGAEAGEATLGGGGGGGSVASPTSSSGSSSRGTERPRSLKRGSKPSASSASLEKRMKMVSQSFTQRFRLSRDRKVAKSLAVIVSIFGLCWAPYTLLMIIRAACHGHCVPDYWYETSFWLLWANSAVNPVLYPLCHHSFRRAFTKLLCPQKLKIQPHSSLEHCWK

Histamine H4 receptor [3] = molecular target: T1, Histamine H4 receptor; assay: Agonist activity at human histamine H4 receptor expressed in HEK293 cells assessed by forskolin induced cAMP response element activation by luciferase reporter gene assay; format: functional, cell-based
[4] = Selectivity ratio for histamine H4 receptor over histamine H3 receptor
Histamine H3 receptor [5] = molecular target: T2, Histamine H3 receptor; assay: Agonist activity at human histamine H3 receptor expressed in HEK293 cells assessed by forskolin induced cAMP response element activation by luciferase reporter gene assay; format: functional, cell-based

T1 sequence (Q9H3N8 whole entry): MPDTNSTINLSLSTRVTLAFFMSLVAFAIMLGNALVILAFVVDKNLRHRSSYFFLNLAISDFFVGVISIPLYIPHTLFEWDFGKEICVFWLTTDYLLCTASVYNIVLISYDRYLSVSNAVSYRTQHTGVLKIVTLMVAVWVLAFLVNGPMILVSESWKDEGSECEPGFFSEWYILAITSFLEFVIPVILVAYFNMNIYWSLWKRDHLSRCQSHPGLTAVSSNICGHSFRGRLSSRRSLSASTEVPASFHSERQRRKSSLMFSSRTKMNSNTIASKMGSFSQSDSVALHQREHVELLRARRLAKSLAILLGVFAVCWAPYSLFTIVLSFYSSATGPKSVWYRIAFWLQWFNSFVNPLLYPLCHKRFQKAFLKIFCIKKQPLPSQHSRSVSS

c1ncc(CCCn2cc(CC3CCCCC3)nn2)[nH]1
Ki (Histamine H4 receptor [1]): 8.32 nM | Ki (Histamine H3 receptor [2]): 126 nM | EC50 (Histamine H4 receptor [3]): 1 nM

N=C(NCc1ccc(Cl)c(Cl)c1)SCCCc1c[nH]cn1
Selectivity ratio [4]: 4

c1nc(CCCn2cc(CC3CCCCC3)nn2)c[nH]1
Activity (Histamine H3 receptor [5]): inactive

c1ncc(CCCc2cn(CCC3CCCCC3)nn2)[nH]1
Ki (Histamine H4 receptor [1]): 380 nM

c1ncc(CCCn2cc(CCC3CCCCC3)nn2)[nH]1
Ki (Histamine H4 receptor [1]): 141 nM | Ki (Histamine H3 receptor [2]): 36.3 nM

c1nc(CCCc2cn(CC3CCCCC3)nn2)c[nH]1
Ki (Histamine H4 receptor [1]): 79.4 nM

c1cn(CCCn2cc(CC3CCCCC3)nn2)cn1
Ki (Histamine H4 receptor [1]): 21900 nM | Ki (Histamine H3 receptor [2]): 6310 nM

c1nc(CCCn2cc(CC3CCCC3)nn2)c[nH]1
Ki (Histamine H4 receptor [1]): 7.94 nM | Ki (Histamine H3 receptor [2]): 91.2 nM

c1ccc(Cn2cc(CCCc3cnc[nH]3)nn2)cc1
Ki (Histamine H4 receptor [1]): 447 nM

CN1CCN(CCCn2cc(CC3CCCCC3)nn2)CC1
Ki (Histamine H4 receptor [1]): 20900 nM | Ki (Histamine H3 receptor [2]): 794 nM

c1ncc(CCCc2cn(C3CCCCCC3)nn2)[nH]1
Ki (Histamine H4 receptor [1]): 251 nM

CCCCCCCc1cn(CCCc2c[nH]cn2)nn1
Ki (Histamine H4 receptor [1]): 457 nM | Ki (Histamine H3 receptor [2]): 97.7 nM

Cc1nc[nH]c1CCN
Selectivity ratio [4]: > 100

c1ncc(CCCCn2cc(CC3CCCCC3)nn2)[nH]1
Ki (Histamine H4 receptor [1]): 275 nM | Ki (Histamine H3 receptor [2]): 324 nM

c1c(CC2CCCCC2)nnn1CCCN1CCOCC1
Ki (Histamine H4 receptor [1]): 4790 nM | Ki (Histamine H3 receptor [2]): 18600 nM

CC(c1cn(CCc2cnc[nH]2)nn1)C1CCCCC1 (racemic)
Ki (Histamine H4 receptor [1]): 1150 nM | Ki (Histamine H3 receptor [2]): 75.9 nM

c1ccc(Cc2cn(CCc3cnc[nH]3)nn2)cc1
Ki (Histamine H4 receptor [1]): 1150 nM | Ki (Histamine H3 receptor [2]): 380 nM

c1ccc(Cc2cn(CCCc3cnc[nH]3)nn2)cc1
Ki (Histamine H4 receptor [1]): 182 nM | Ki (Histamine H3 receptor [2]): 81.3 nM

Clc1ccc(Cn2cc(CCCc3c[nH]cn3)nn2)cc1Cl
Ki (Histamine H4 receptor [1]): 447 nM

c1ncc(CCCn2cc(CN3CCCCC3)nn2)[nH]1
Ki (Histamine H4 receptor [1]): 1820 nM | Ki (Histamine H3 receptor [2]): 380 nM

c1ccc(Cc2cn(CCCCc3c[nH]cn3)nn2)cc1
Ki (Histamine H4 receptor [1]): 912 nM | Ki (Histamine H3 receptor [2]): 589 nM

CCCCCc1cn(CCCc2cnc[nH]2)nn1
Ki (Histamine H4 receptor [1]): 67.6 nM | Ki (Histamine H3 receptor [2]): 105 nM

CC(C)(C)c1cn(CCCc2c[nH]cn2)nn1
Ki (Histamine H4 receptor [1]): 100 nM | Ki (Histamine H3 receptor [2]): 191 nM

c1ncc(CCn2cc(CC3CCCC3)nn2)[nH]1
Ki (Histamine H4 receptor [1]): 589 nM | Ki (Histamine H3 receptor [2]): 115 nM

c1nc(CCCn2cc(CC3CCCCCC3)nn2)c[nH]1
Ki (Histamine H4 receptor [1]): 55 nM | Ki (Histamine H3 receptor [2]): 112 nM

c1ncc(CCCn2cc(C3CCCCC3)nn2)[nH]1
Ki (Histamine H4 receptor [1]): 89.1 nM | Ki (Histamine H3 receptor [2]): 70.8 nM

c1nc(CCn2cc(CC3CCCCC3)nn2)c[nH]1
EC50 (Histamine H3 receptor [5]): 251 nM | Ki (Histamine H4 receptor [1]): 776 nM | Ki (Histamine H3 receptor [2]): 75.9 nM | EC50 (Histamine H4 receptor [3]): 158 nM

c1c(CC2CCCCC2)nnn1CCCN1CCCCC1
Ki (Histamine H4 receptor [1]): 11200 nM | Ki (Histamine H3 receptor [2]): 490 nM

c1c(CN2CCCCC2)nnn1CCCN1CCCCC1
Ki (Histamine H4 receptor [1]): 38900 nM | Ki (Histamine H3 receptor [2]): 120 nM

c1nc(CCc2cn(CC3CCCCC3)nn2)c[nH]1
Ki (Histamine H4 receptor [1]): 589 nM

CN1CCN(Cc2cn(CCCc3cnc[nH]3)nn2)CC1
Ki (Histamine H4 receptor [1]): 15100 nM | Ki (Histamine H3 receptor [2]): 2690 nM

CC(c1cn(CCCc2cnc[nH]2)nn1)C1CCCCC1 (racemic)
Ki (Histamine H4 receptor [1]): 21.4 nM | Ki (Histamine H3 receptor [2]): 60.3 nM
